From patent US20240398767A1, “INHIBITORS OF THE MTDH-SND1 PROTEIN COMPLEX FOR CANCER THERAPY” (The Trustees of Princeton University, priority 2021, published 2024)

Tests used:
SCP28 cells = assay: Experimental lung metastasis of SCP28 cells; assay type: in vivo; settings: 5 weeks treatment
Method: FIG. 17D, Tail-vein injection lung metastasis was determined by BLI right before (Week 0) or after (5 weeks) vehicle or C26-A6 treatment. Vehicle, n=11 lungs; C26-A6, n=12 lungs.
FIG. 17E, Lung metastatic nodules were quantified. The metastatic nodules of the representative lungs were highlighted with red and blue respectively. Size bar, 5 mm. Vehicle, n=11 lungs; C26-A6, n=12 lungs.
To exclude the possibility that the lung metastasis reduction upon C26-A6 treatment was due to the smaller primary tumor, tail vein injection of PyMT tumor cells was performed to form experimental lung metastasis in FVB mice. Three days later, mice were divided randomly into two groups and treated with vehicle or C26-A6 respectively (FIG. 5L).

[1] = test system: E0771-OVA control (shCtrl) cells; assay: E0771-OVA shCtrl cells / OT-I splenocyte co-culture; assay type: cell-based, mouse; settings: 24 hr co-culture
Source text: For FIGS. 33B-33D, E0771-OVA cells with (shTap1/2) or without (shCtrl) Tap1/2 knockdown were co-cultured with OT-I splenocytes with the ratio of 1:10 (tumor cells:splenocytes). Data represent mean±SEM. n=3 independent experiments. Significance determined by one-way ANOVA analysis with Sidak's test for multiple comparisons.
FIG. 33B, 24 hr after co-culture, tumor cells were collected for examining OVA (H-2K^b-SIINFEKL) expression.
FIG. 33C, 24 hr after co-culture, tumor cells were collected for examining MHC-I expression.
FIG. 33D, 24 hr after co-culture, splenocytes were collected for examining CD137 expression.
MTDH-SND1 suppresses antigen presentation by reducing Tap1/2. To confirm that MTDH-SND1 drives immune evasion through suppressing the Tap1/2 pathway, antigen presentation-deficient cells were generated by knocking down Tap1/2^20. E0771-OVA cells were transduced with lentiviruses expressing Tap1/2-targeting shRNAs. Tap1/2 KD was confirmed by western blot (FIG. 33A), and antigen presentation deficiency upon Tap1/2 KD was also validated (FIGS. 33B, 33C). Next, shCtrl (control shRNA) or Tap1/2 KD cells were co-cultured with OT-I splenocytes together with vehicle or C26-A6 treatment.

[2] = test system: Py8119-OVA cells co-cultured with OT-I splenocytes; assay: Py8119-OVA tumor cell / OT-I splenocyte co-culture; assay type: cell-based, mouse; settings: 200 μM
Method: FIG. 22C, Py8119-OVA cells co-cultured with OT-I splenocytes were treated with 200 μM of C26-A6 or same amount of vehicle. The binding between MTDH and Tap1/2 in tumor cells were determined by RIP assay.
FIG. 22D, Tap1/2 RNAs that bind to MTDH in (c) were quantified and normalized to the pulled down MTDH levels.
FIG. 22E, Tap1/2 levels in Py8119-OVA cells with/without 200 μM of C26-A6 treatment during co-culture were examined by qRT-PCR.
FIG. 22F, OVA (H-2K^b-SIINFEKL) presentation in Py8119-OVA cells with/without 200 μM of C26-A6 treatment in co-culture were determined by flow cytometry. MFI, Mean Fluorescence Intensity; AU, arbitrary units.
FIG. 22G, Media in (E) was collected for IFN-γ ELISA and cytotoxicity assay. AU, arbitrary units.
FIG. 32B, Py8119-OVA cells co-cultured with OT-I splenocytes were treated with 200 μM of C26-A6 or same amount of vehicle. The binding between SND1 and Tap1/2 in tumor cells were determined by RIP assay.
FIG. 32C, Tap1/2 RNAs that bind to SND1 were quantified and normalized to the pulled down SND1 levels.
FIG. 32D, MHC-I presentation in Py8119-OVA cells with/without 200 μM of C26-A6 treatment in co-culture were determined by flow cytometry. MFI, mean fluorescence intensity; AU, arbitrary units.
FIGS. 32E, The expression of CD137 in splenocytes co-cultured with Py8119-OVA was determined by flow cytometry upon 200 μM of C26-A6 or vehicle treatment.
FIGS. 32F, The expression of IFN-γ in splenocytes co-cultured with Py8119-OVA were determined by flow cytometry upon 200 μM of C26-A6 or vehicle treatment.
Immune cell and tumor cell co-culture assay. Py8119-OVA tumor cells with various MTDH expression status were plated in 6-well plates for in vitro co-culture in DMEM/F12 media listed above. Once cells reached 50-75% confluency OT-I splenocytes or CD8^+ T cells were added to the tumor cells at the 1:10 ratio (tumor cell. immune cell). After 24 hr of co-culture, the cells and culture media were collected for further experiments.
RNA-Binding immunoprecipitation (RIP) and western blot (WB). Py8119-OVA tumor cells after co-culture for 24 hr were collected for RIP using RNA-Binding Protein Immunoprecipitation Kit (Millipore, #17-700). Briefly, 5×10^7 tumor cells were resuspended with 200 μL of RIP lysis buffer and frozen at −80° C. for at least 1 hr to lyse the cells. The sample was then centrifuged at 14,000 rpm for 10 min at 4° C. 20 μL of supernatant was transferred to two new tubes with 10 μL each and frozen at −80° C. to serve as input of total. The rest of the supernatant was diluted with 1.8 ml of RIP immunoprecipitation buffer and split equally into two 1.5 ml EP tubes. 5 μg of MTDH (Invitrogen, catalogue #40-6500), SND1 (Santa Cruz, catalogue #sc-271590) or IgG (provided in the Kit) antibody was added into each tube and incubated at 4° C. overnight. The next day, 50 μL of magnetic beads was added and incubated for another 2 hr. The beads were then washed with 500 μL of RIP wash buffer on a magnetic separator for 5 times. During the final wash, 25 μL of the beads in the wash buffer was transferred into a new tube, stored at −80° C. to serve as input of IP. The rest of the beads together and 10 μL input of total were resuspended with 300 μL of proteinase K buffer respectively and incubated at 55° C. for 30 min to degrade proteins. RNA was extracted with phenol:chloroform:isoamyl alcohol and precipitated with 100 μL of Salt Solution I, 30 μL of Salt Solution II, and 10 μL of Precipitation Enhancer at −80° C. overnight. […]

For `COc1ccc(Cl)cc1S(=O)(=O)Nc1cccn2nc(C)nc12` [Analog C26-A6], the experimental lung metastasis (SCP28 cells) was “dramatically inhibited”, the “antigen presentation and T cell activation” value [1] was “significant increase” and the “OVA antigen and MHC-I complex presentation (flow cytometry)” value [2] was “promotes OVA antigen and MHC-I complex presentation”. The “T cell activation (CD137, IFN-γ)” value [2] was “promotes”, the “Tap1/2 binding of MTDH and SND1 (RIP assay)” value [2] was “decreased the Tap1/2 binding of MTDH and SND1” and the “Tap1/2 mRNA expression level (qRT-PCR)” value [2] was “increased the expression level of these mRNAs”. The “immune clearance of tumor cells (cytotoxicity assay)” value [2] was “sensitizes the tumor cells to immune clearance”.
